Source: PMC9334755 (Cancer Biology & Medicine, 2021)
pIC50: −log10 of the molar value. Read-outs that look alike come from different tables or passages of the source.

Experiments:
LCK = LCK (Homo sapiens, UniProt P06239); assay: Protein kinase panel at 1 µM, LCK; format: biochemical
BTK = BTK (Homo sapiens, UniProt Q06187); assay: Recovery of BTK activity after dilution (HTRF); format: biochemical; conditions: BTK incubated with inhibitor for 2 h, mixture diluted
Protocol: In addition, after incubation of BTK with the inhibitors for 4 h, we performed liquid chromatography-tandem mass spectrometry (LC-MS/MS) to detect the abundance of the inhibitors.
(A) The compounds were incubated with BTK for 2 h, after which HTRF assays were performed with dilution of the mixture. The reactions were stopped at different time points. Data are shown as the mean ± SEM. (B) The content of the compounds was measured with LC-MS/MS after incubation with BTK for 4 h. Data are shown as the mean ± SEM (n = 3). Statistical analysis was performed with Student’s t-test (***P < 0.001). […] Cells were lysed and analyzed by Western blot and fluorescent gel scanning.

EPHA3 = EPHA3 (Homo sapiens, UniProt P29320); assay: Protein kinase panel at 1 µM, EPHA3; format: biochemical
PTK6 = PTK6 (Homo sapiens, UniProt Q13882); assay: Protein kinase panel at 1 µM, PTK6; format: biochemical
[1] = dog
FLT1 = FLT1 (Homo sapiens, UniProt P17948); assay: Protein kinase panel at 1 µM, FLT1; format: biochemical
CYP2C19 = CYP2C19 (Homo sapiens, UniProt P33261); format: in vitro ADME
Source text: Table S8 Inhibition of CYP isozymes by SY-1530 […]
(§1) (1 picture or pasted object on this page, not shown here)

FYN = FYN (Homo sapiens, UniProt P06241); assay: Protein kinase panel at 1 µM, FYN; format: biochemical
human peripheral B cells = assay: CD69 up-regulation in B cells after anti-IgM stimulation; format: cell-based
Protocol: CD19^+ B (>80% purity) and CD3^+ T (>90% purity) cells were purified with human B cell enrichment cocktail and human T cell enrichment cocktail (Stem Cell Technology), respectively. Cells were seeded on 12-well plates and incubated with different concentrations of BTK inhibitors for 1 h. B cells were stimulated with 50 µg/mL anti-human IgM F(ab′)2, and T cells were stimulated with 50 µg/mL anti-CD3/CD28 beads overnight. In the washout groups, the cell medium containing the indicated inhibitors was replaced with fresh medium before stimulation. Then cells were then incubated with anti-human CD69 for 1 h and analyzed with a Guava flow cytometer.
Figure 4 SY-1530 blocks B-cell receptor signaling and induces apoptosis. (A–D) Human B and T cells were purified and incubated with different concentrations of BTK inhibitors for 1 h. B cells were stimulated with 50 μg/mL anti-human IgM F(ab′)2, and T cells were stimulated with 50 μg/mL anti-CD3/CD28 beads overnight directly or after washout of BTK inhibitors before stimulation. The percentage of CD69 positive cells was analyzed by flow cytometry. Data are shown as the mean ± SEM (n = 3). Statistical analysis was performed with Student’s t-test (*P < 0.05, **P < 0.01, ***P < 0.001). (E) Pfeiffer cells and Romas cells were preincubated with different concentrations of compounds for 1 h, washed with PBS, and then stimulated with anti-IgM/anti-IgG (10 μg/mL) for 10 min. Cells were lysed and analyzed by Western blot with the indicated antibodies. (F) Pfeiffer cells were treated with various concentrations of SY-1530 for 24 h. The cells were stained with both PE-Annexin and 7-AAD and analyzed by flow cytometry. Data are shown as the mean ± SEM (n = 3). Statistical analysis was performed with Student’s t-test (*P < 0.05, **P < 0.01). (G) Pfeiffer cells were incubated with BTK inhibitors in the presence of z-VAD-fmk (caspase inhibitor) or DMSO for 24 h. Cells were lysed and analyzed with specific antibodies.

[2] = rat, in vivo
[3] = mouse
RET = RET (Homo sapiens, UniProt P07949); assay: Protein kinase panel at 1 µM, RET; format: biochemical
[4] = human
FRK = FRK (Homo sapiens, UniProt P42685); assay: Protein kinase panel at 1 µM, FRK; format: biochemical
CYP1A2 = CYP1A2 (Homo sapiens, UniProt P05177); format: in vitro ADME
Source text: (§2) Cancer Biol Med Vol 19, No 7 July 2022 3
(§3) Table S8 Inhibition of CYP isozymes by SY-1530
(§4) Table S9 Preclinical safety of SY-1530
(§5) Group Single-dose toxicity Multiple-dose toxicity
(§6) Animal Rat Beagle dog Rat Beagle dog
as §1

CYP2C8 = CYP2C8 (Homo sapiens, UniProt P10632); format: in vitro ADME
Source text: as §2, §3, §4, §5, §6, §1

CYP2C9 = CYP2C9 (Homo sapiens, UniProt P11712); format: in vitro ADME
Source text: as §2, §3, §4, §5, §6, §1

Chain of FRK (P42685 whole entry): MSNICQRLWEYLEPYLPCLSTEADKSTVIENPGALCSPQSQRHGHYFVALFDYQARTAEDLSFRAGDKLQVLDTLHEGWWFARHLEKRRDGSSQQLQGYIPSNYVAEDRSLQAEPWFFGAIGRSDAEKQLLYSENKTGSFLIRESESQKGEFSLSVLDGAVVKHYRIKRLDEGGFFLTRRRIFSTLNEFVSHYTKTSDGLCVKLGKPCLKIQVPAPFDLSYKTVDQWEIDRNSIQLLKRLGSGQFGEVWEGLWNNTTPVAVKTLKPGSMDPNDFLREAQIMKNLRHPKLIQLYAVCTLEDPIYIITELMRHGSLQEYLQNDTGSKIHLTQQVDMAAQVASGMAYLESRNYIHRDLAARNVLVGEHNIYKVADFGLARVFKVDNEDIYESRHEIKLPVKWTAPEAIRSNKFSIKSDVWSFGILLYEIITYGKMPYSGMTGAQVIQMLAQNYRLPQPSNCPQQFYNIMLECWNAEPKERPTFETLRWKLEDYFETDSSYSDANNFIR
Chain of EPHA3 (P29320 21-983, species assumed): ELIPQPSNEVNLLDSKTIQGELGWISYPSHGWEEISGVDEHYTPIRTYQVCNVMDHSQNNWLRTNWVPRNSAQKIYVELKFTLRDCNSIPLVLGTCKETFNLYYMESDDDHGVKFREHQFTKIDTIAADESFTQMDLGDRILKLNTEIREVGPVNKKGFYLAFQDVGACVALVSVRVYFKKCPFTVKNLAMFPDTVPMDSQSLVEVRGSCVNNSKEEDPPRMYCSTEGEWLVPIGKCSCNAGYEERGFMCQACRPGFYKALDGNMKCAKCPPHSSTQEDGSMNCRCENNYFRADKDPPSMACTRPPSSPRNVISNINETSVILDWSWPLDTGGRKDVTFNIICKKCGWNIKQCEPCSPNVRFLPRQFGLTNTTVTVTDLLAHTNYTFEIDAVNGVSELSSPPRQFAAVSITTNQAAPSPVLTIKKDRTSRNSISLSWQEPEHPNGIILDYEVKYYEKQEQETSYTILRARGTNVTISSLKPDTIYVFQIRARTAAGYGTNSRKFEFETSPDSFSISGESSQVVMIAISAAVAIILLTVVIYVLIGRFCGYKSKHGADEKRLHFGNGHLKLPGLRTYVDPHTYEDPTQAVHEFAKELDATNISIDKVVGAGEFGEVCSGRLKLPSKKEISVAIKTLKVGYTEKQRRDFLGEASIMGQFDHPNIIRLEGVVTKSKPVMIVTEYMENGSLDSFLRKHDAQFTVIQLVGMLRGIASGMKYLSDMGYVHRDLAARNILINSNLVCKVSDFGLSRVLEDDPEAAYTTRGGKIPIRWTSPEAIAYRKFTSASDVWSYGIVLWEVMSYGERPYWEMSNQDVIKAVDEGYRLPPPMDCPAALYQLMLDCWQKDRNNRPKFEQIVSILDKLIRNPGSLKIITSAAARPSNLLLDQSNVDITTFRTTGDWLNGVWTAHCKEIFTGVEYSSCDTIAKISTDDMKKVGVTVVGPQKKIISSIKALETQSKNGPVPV
Chain of RET (P07949 29-1114): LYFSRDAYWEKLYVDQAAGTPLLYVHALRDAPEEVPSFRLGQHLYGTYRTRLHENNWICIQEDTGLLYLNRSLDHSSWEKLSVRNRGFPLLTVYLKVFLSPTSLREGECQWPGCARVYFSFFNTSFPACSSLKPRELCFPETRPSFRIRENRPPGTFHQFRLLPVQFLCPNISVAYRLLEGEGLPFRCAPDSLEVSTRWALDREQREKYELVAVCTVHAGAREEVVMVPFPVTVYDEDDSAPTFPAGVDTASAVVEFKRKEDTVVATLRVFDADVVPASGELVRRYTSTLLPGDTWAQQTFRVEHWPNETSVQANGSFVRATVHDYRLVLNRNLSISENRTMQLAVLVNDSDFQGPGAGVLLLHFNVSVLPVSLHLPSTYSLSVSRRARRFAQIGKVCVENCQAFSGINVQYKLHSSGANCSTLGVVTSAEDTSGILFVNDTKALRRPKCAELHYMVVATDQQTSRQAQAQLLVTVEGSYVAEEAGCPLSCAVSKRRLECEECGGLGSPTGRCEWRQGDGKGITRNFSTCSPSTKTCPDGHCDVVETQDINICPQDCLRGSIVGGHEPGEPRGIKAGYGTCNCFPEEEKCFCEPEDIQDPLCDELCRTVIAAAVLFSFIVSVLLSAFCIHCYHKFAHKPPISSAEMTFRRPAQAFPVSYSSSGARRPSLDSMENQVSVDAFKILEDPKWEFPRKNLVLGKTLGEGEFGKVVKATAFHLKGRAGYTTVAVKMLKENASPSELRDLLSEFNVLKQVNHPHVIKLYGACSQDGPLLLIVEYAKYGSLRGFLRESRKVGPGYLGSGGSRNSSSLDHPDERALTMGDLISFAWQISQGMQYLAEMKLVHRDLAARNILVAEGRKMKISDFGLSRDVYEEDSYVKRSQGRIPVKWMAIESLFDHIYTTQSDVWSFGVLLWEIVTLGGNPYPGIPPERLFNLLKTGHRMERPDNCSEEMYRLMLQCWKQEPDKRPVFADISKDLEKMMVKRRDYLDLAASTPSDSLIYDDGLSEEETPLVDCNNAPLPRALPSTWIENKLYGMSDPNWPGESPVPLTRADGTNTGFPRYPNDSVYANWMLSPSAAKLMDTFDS
Chain of CYP2C9 (P11712 whole entry): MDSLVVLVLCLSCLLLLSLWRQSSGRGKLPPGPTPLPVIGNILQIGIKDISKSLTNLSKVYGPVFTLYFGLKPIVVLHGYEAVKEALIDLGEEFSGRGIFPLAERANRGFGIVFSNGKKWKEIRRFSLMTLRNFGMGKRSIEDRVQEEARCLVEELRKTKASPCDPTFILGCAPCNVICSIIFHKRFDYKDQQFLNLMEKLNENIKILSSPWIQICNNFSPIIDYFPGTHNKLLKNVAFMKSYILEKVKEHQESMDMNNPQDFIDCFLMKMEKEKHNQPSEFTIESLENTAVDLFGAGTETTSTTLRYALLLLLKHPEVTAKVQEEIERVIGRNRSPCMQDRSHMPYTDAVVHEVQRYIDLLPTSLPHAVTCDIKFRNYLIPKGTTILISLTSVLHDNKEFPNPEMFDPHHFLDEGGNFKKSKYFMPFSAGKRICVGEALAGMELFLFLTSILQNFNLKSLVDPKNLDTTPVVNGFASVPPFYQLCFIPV
Chain of FYN (P06241 whole entry): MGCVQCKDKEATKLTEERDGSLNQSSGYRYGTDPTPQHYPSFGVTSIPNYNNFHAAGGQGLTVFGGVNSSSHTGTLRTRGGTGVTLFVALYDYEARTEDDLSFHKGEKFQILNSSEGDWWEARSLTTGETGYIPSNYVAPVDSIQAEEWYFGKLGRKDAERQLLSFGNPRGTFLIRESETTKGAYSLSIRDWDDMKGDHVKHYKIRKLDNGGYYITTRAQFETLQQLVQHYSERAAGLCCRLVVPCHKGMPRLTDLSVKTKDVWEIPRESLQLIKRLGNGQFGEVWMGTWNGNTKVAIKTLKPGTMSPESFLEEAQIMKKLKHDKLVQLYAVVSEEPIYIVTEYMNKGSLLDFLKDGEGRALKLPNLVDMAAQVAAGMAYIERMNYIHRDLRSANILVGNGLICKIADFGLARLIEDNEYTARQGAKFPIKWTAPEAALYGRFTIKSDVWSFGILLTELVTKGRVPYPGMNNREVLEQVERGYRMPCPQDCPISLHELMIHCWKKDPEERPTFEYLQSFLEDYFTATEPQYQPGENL
Chain of CYP2C19 (P33261 whole entry): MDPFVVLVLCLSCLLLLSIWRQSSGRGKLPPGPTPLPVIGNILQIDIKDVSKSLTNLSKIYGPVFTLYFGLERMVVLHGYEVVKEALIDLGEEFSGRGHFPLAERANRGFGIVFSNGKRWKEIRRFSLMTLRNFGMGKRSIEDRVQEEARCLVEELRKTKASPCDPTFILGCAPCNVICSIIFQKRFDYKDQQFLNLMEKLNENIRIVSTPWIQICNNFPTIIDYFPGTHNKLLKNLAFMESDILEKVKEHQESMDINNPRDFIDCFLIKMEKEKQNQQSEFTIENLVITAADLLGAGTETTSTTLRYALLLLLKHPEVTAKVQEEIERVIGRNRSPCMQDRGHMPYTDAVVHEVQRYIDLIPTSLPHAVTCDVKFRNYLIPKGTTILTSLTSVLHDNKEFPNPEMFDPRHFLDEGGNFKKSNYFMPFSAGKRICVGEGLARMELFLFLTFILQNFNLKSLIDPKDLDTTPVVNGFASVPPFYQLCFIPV
Chain of BTK (Q06187 whole entry): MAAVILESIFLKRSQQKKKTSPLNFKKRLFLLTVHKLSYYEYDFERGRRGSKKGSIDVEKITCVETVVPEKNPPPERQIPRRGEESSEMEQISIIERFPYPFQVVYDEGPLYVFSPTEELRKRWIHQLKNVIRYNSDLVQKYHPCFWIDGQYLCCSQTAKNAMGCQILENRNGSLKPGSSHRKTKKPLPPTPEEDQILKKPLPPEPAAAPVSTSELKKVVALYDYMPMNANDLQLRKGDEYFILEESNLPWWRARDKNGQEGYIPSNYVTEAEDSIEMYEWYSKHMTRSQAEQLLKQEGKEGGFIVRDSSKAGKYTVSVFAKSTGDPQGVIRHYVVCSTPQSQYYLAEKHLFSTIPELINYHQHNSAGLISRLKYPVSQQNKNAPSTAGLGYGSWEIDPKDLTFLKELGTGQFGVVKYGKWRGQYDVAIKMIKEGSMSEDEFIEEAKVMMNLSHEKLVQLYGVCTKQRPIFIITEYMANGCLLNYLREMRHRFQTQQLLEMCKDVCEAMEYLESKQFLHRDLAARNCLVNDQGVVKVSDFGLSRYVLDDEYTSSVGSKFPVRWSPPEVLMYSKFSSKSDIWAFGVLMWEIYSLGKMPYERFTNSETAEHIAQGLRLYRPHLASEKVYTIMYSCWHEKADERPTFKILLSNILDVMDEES

COC/C=C/C(=O)N1CC[C@@H](n2nc(-c3ccc(Oc4ccccc4)cc3)c(C(N)=O)c2N)C1 [SY-1530]
Inhibition (%), LCK (LCK): 94% | Recovery of BTK activity after dilution (BTK): did not recover | Inhibition (%), EPHA3 (EPHA3): −2% | Inhibition (%), PTK6 (PTK6): 92% | Plasma protein binding (%) [1]: 95.5% | Inhibition (%), FLT1 (FLT1): 33% | pIC50 (CYP2C19): 4.62 | Inhibition (%), FYN (FYN): 87% | Up-regulation of CD69 in B cells after anti-IgM (human peripheral B cells; continuous exposure, 10 nM): completely abolished | Up-regulation of CD69 in B cells after anti-IgM (human peripheral B cells; inhibitors washed out before BCR stimulation): blocked | AUC0–∞ ([2]; iv, 5 mg/kg): 4112 ng·h/mL | AUC0–∞ ([2]; po, 30 mg/kg): 4460 ng·h/mL | Cmax ([2]; po, 30 mg/kg): 658 ng/mL | F (%) ([2]; po, 30 mg/kg): 18.1% | Tmax ([2]; po, 30 mg/kg): 3.33 h | t½ ([2]; po, 30 mg/kg): 4.79 h | AUC0–∞ ([2]; po, 100 mg/kg): 6842 ng·h/mL | Cmax ([2]; po, 100 mg/kg): 1085 ng/mL | F (%) ([2]; po, 100 mg/kg): 8.32% | Tmax ([2]; po, 100 mg/kg): 1.75 h | t½ ([2]; po, 100 mg/kg): 3.08 h | AUC0–∞ ([2]; po, 300 mg/kg): 9257 ng·h/mL | Cmax ([2]; po, 300 mg/kg): 1129 ng/mL | F (%) ([2]; po, 300 mg/kg): 3.75% | Tmax ([2]; po, 300 mg/kg): 5.25 h | t½ ([2]; po, 300 mg/kg): 3.9 h | Plasma protein binding (%) [3]: 94.8% | Inhibition (%), RET (RET): 57% | Plasma protein binding (%) [4]: 95.6% | Inhibition (%), FRK (FRK): 72% | pIC50 (CYP1A2): < 4.60 | pIC50 (CYP2C8): < 4.60 | pIC50 (CYP2C9): < 4.60
